{"source": "ChEMBL document CHEMBL5131495", "about": "“Discovery of unique thiazolidinone-conjugated coumarins as novel broad spectrum antibacterial agents” (Eur J Med Chem, 2022)", "data": [{"tested_on": "Staphylococcus aureus", "assay": "Antibacterial activity against Staphylococcus aureus assessed as inhibition of bacterial growth", "format": "functional", "units": {"MIC": "µg/mL"}, "values": [{"smiles": "Cc1cc(=O)oc2cc(/N=C3/S/C(=C\\c4ccc(F)cc4F)C(=O)N3CCO)ccc12", "MIC": 32}, {"smiles": "Cc1cc(=O)oc2cc(/N=C3/SCC(=O)N3CCO)ccc12", "MIC": 128}, {"smiles": "COc1ccc(/C=C2\\S/C(=N/c3ccc4c(C)cc(=O)oc4c3)N(CCO)C2=O)cc1", "MIC": 32}, {"smiles": "Cc1cc(=O)oc2cc(/N=C3/S/C(=C\\c4ccc(O)c(Br)c4)C(=O)N3CCO)ccc12", "MIC": 16}, {"smiles": "Cc1cc(=O)oc2cc(/N=C3/S/C(=C\\c4ccc(Cl)cc4)C(=O)N3CCO)ccc12", "MIC": 128}, {"smiles": "Cc1ccc(/C=C2\\S/C(=N/c3ccc4c(C)cc(=O)oc4c3)N(CCO)C2=O)cc1", "MIC": 64}, {"smiles": "Cc1cc(=O)oc2cc(/N=C3\\NC(=O)CS3)ccc12", "MIC": 32}]}, {"tested_on": "Staphylococcus aureus", "assay": "Antibacterial activity against methicillin resistant Staphylococcus aureus N315 assessed as inhibition of bacterial growth", "format": "functional", "units": {"MIC": "µg/mL"}, "values": [{"smiles": "Cc1cc(=O)oc2cc(/N=C3/S/C(=C\\c4ccc(F)cc4F)C(=O)N3CCO)ccc12", "MIC": 64}, {"smiles": "Cc1cc(=O)oc2cc(/N=C3/SCC(=O)N3CCO)ccc12", "MIC": 128}, {"smiles": "COc1ccc(/C=C2\\S/C(=N/c3ccc4c(C)cc(=O)oc4c3)N(CCO)C2=O)cc1", "MIC": 4}, {"smiles": "Cc1cc(=O)oc2cc(/N=C3/S/C(=C\\c4ccc(O)c(Br)c4)C(=O)N3CCO)ccc12", "MIC": 128}, {"smiles": "Cc1cc(=O)oc2cc(/N=C3/S/C(=C\\c4ccc(Cl)cc4)C(=O)N3CCO)ccc12", "MIC": 16}, {"smiles": "Cc1ccc(/C=C2\\S/C(=N/c3ccc4c(C)cc(=O)oc4c3)N(CCO)C2=O)cc1", "MIC": 128}, {"smiles": "Cc1cc(=O)oc2cc(/N=C3\\NC(=O)CS3)ccc12", "MIC": 256}]}, {"tested_on": "Enterococcus faecalis", "assay": "Antibacterial activity against Enterococcus faecalis assessed as inhibition of bacterial growth", "format": "functional", "units": {"MIC": "µg/mL"}, "values": [{"smiles": "Cc1cc(=O)oc2cc(/N=C3/S/C(=C\\c4ccc(F)cc4F)C(=O)N3CCO)ccc12", "MIC": 2}, {"smiles": "Cc1cc(=O)oc2cc(/N=C3/SCC(=O)N3CCO)ccc12", "MIC": 128}, {"smiles": "COc1ccc(/C=C2\\S/C(=N/c3ccc4c(C)cc(=O)oc4c3)N(CCO)C2=O)cc1", "MIC": 8}, {"smiles": "Cc1cc(=O)oc2cc(/N=C3/S/C(=C\\c4ccc(O)c(Br)c4)C(=O)N3CCO)ccc12", "MIC": 64}, {"smiles": "Cc1cc(=O)oc2cc(/N=C3/S/C(=C\\c4ccc(Cl)cc4)C(=O)N3CCO)ccc12", "MIC": 128}, {"smiles": "Cc1ccc(/C=C2\\S/C(=N/c3ccc4c(C)cc(=O)oc4c3)N(CCO)C2=O)cc1", "MIC": 256}, {"smiles": "Cc1cc(=O)oc2cc(/N=C3\\NC(=O)CS3)ccc12", "MIC": 256}]}, {"tested_on": "Staphylococcus aureus", "assay": "Antibacterial activity against Staphylococcus aureus ATCC 25923 assessed as inhibition of bacterial growth", "format": "functional", "units": {"MIC": "µg/mL"}, "values": [{"smiles": "Cc1cc(=O)oc2cc(/N=C3/S/C(=C\\c4ccc(F)cc4F)C(=O)N3CCO)ccc12", "MIC": 4}, {"smiles": "Cc1cc(=O)oc2cc(/N=C3/SCC(=O)N3CCO)ccc12", "MIC": 16}, {"smiles": "COc1ccc(/C=C2\\S/C(=N/c3ccc4c(C)cc(=O)oc4c3)N(CCO)C2=O)cc1", "MIC": 32}, {"smiles": "Cc1cc(=O)oc2cc(/N=C3/S/C(=C\\c4ccc(O)c(Br)c4)C(=O)N3CCO)ccc12", "MIC": 64}, {"smiles": "Cc1cc(=O)oc2cc(/N=C3/S/C(=C\\c4ccc(Cl)cc4)C(=O)N3CCO)ccc12", "MIC": 8}, {"smiles": "Cc1ccc(/C=C2\\S/C(=N/c3ccc4c(C)cc(=O)oc4c3)N(CCO)C2=O)cc1", "MIC": 256}, {"smiles": "Cc1cc(=O)oc2cc(/N=C3\\NC(=O)CS3)ccc12", "MIC": 64}]}, {"tested_on": "Staphylococcus aureus", "assay": "Antibacterial activity against Staphylococcus aureus ATCC 29213 assessed as inhibition of bacterial growth", "format": "functional", "units": {"MIC": "µg/mL"}, "values": [{"smiles": "Cc1cc(=O)oc2cc(/N=C3/S/C(=C\\c4ccc(F)cc4F)C(=O)N3CCO)ccc12", "MIC": 32}, {"smiles": "Cc1cc(=O)oc2cc(/N=C3/SCC(=O)N3CCO)ccc12", "MIC": 64}, {"smiles": "COc1ccc(/C=C2\\S/C(=N/c3ccc4c(C)cc(=O)oc4c3)N(CCO)C2=O)cc1", "MIC": 0.5}, {"smiles": "Cc1cc(=O)oc2cc(/N=C3/S/C(=C\\c4ccc(O)c(Br)c4)C(=O)N3CCO)ccc12", "MIC": 128}, {"smiles": "Cc1cc(=O)oc2cc(/N=C3/S/C(=C\\c4ccc(Cl)cc4)C(=O)N3CCO)ccc12", "MIC": 4}, {"smiles": "Cc1ccc(/C=C2\\S/C(=N/c3ccc4c(C)cc(=O)oc4c3)N(CCO)C2=O)cc1", "MIC": 128}, {"smiles": "Cc1cc(=O)oc2cc(/N=C3\\NC(=O)CS3)ccc12", "MIC": 256}]}, {"tested_on": "Klebsiella pneumoniae", "assay": "Antibacterial activity against Klebsiella pneumoniae assessed as inhibition of bacterial growth", "format": "functional", "units": {"MIC": "µg/mL"}, "values": [{"smiles": "Cc1cc(=O)oc2cc(/N=C3/S/C(=C\\c4ccc(F)cc4F)C(=O)N3CCO)ccc12", "MIC": 64}, {"smiles": "Cc1cc(=O)oc2cc(/N=C3/SCC(=O)N3CCO)ccc12", "MIC": 128}, {"smiles": "COc1ccc(/C=C2\\S/C(=N/c3ccc4c(C)cc(=O)oc4c3)N(CCO)C2=O)cc1", "MIC": 128}, {"smiles": "Cc1cc(=O)oc2cc(/N=C3/S/C(=C\\c4ccc(O)c(Br)c4)C(=O)N3CCO)ccc12", "MIC": 64}, {"smiles": "Cc1cc(=O)oc2cc(/N=C3/S/C(=C\\c4ccc(Cl)cc4)C(=O)N3CCO)ccc12", "MIC": 128}, {"smiles": "Cc1ccc(/C=C2\\S/C(=N/c3ccc4c(C)cc(=O)oc4c3)N(CCO)C2=O)cc1", "MIC": 256}, {"smiles": "Cc1cc(=O)oc2cc(/N=C3\\NC(=O)CS3)ccc12", "MIC": 4}]}, {"tested_on": "Escherichia coli", "assay": "Antibacterial activity against Escherichia coli assessed as inhibition of bacterial growth", "format": "functional", "units": {"MIC": "µg/mL"}, "values": [{"smiles": "Cc1cc(=O)oc2cc(/N=C3/S/C(=C\\c4ccc(F)cc4F)C(=O)N3CCO)ccc12", "MIC": 64}, {"smiles": "Cc1cc(=O)oc2cc(/N=C3/SCC(=O)N3CCO)ccc12", "MIC": 2}, {"smiles": "COc1ccc(/C=C2\\S/C(=N/c3ccc4c(C)cc(=O)oc4c3)N(CCO)C2=O)cc1", "MIC": 32}, {"smiles": "Cc1cc(=O)oc2cc(/N=C3/S/C(=C\\c4ccc(O)c(Br)c4)C(=O)N3CCO)ccc12", "MIC": 256}, {"smiles": "Cc1cc(=O)oc2cc(/N=C3/S/C(=C\\c4ccc(Cl)cc4)C(=O)N3CCO)ccc12", "MIC": 64}, {"smiles": "Cc1ccc(/C=C2\\S/C(=N/c3ccc4c(C)cc(=O)oc4c3)N(CCO)C2=O)cc1", "MIC": 128}, {"smiles": "Cc1cc(=O)oc2cc(/N=C3\\NC(=O)CS3)ccc12", "MIC": 16}]}, {"tested_on": "Escherichia coli", "assay": "Antibacterial activity against Escherichia coli ATCC 25922 assessed as inhibition of bacterial growth", "format": "functional", "units": {"MIC": "µg/mL"}, "values": [{"smiles": "Cc1cc(=O)oc2cc(/N=C3/S/C(=C\\c4ccc(F)cc4F)C(=O)N3CCO)ccc12", "MIC": 128}, {"smiles": "Cc1cc(=O)oc2cc(/N=C3/SCC(=O)N3CCO)ccc12", "MIC": 64}, {"smiles": "COc1ccc(/C=C2\\S/C(=N/c3ccc4c(C)cc(=O)oc4c3)N(CCO)C2=O)cc1", "MIC": 128}, {"smiles": "Cc1cc(=O)oc2cc(/N=C3/S/C(=C\\c4ccc(O)c(Br)c4)C(=O)N3CCO)ccc12", "MIC": 32}, {"smiles": "Cc1cc(=O)oc2cc(/N=C3/S/C(=C\\c4ccc(Cl)cc4)C(=O)N3CCO)ccc12", "MIC": 2}, {"smiles": "Cc1ccc(/C=C2\\S/C(=N/c3ccc4c(C)cc(=O)oc4c3)N(CCO)C2=O)cc1", "MIC": 256}, {"smiles": "Cc1cc(=O)oc2cc(/N=C3\\NC(=O)CS3)ccc12", "MIC": 128}]}, {"tested_on": "Pseudomonas aeruginosa", "assay": "Antibacterial activity against Pseudomonas aeruginosa assessed as inhibition of bacterial growth", "format": "functional", "units": {"MIC": "µg/mL"}, "values": [{"smiles": "Cc1cc(=O)oc2cc(/N=C3/S/C(=C\\c4ccc(F)cc4F)C(=O)N3CCO)ccc12", "MIC": 64}, {"smiles": "Cc1cc(=O)oc2cc(/N=C3/SCC(=O)N3CCO)ccc12", "MIC": 128}, {"smiles": "COc1ccc(/C=C2\\S/C(=N/c3ccc4c(C)cc(=O)oc4c3)N(CCO)C2=O)cc1", "MIC": 64}, {"smiles": "Cc1cc(=O)oc2cc(/N=C3/S/C(=C\\c4ccc(O)c(Br)c4)C(=O)N3CCO)ccc12", "MIC": 32}, {"smiles": "Cc1cc(=O)oc2cc(/N=C3/S/C(=C\\c4ccc(Cl)cc4)C(=O)N3CCO)ccc12", "MIC": 2}, {"smiles": "Cc1ccc(/C=C2\\S/C(=N/c3ccc4c(C)cc(=O)oc4c3)N(CCO)C2=O)cc1", "MIC": 128}, {"smiles": "Cc1cc(=O)oc2cc(/N=C3\\NC(=O)CS3)ccc12", "MIC": 64}]}, {"tested_on": "Pseudomonas aeruginosa", "assay": "Antibacterial activity against Pseudomonas aeruginosa ATCC 27853 assessed as inhibition of bacterial growth", "format": "functional", "units": {"MIC": "µg/mL"}, "values": [{"smiles": "Cc1cc(=O)oc2cc(/N=C3/S/C(=C\\c4ccc(F)cc4F)C(=O)N3CCO)ccc12", "MIC": 32}, {"smiles": "Cc1cc(=O)oc2cc(/N=C3/SCC(=O)N3CCO)ccc12", "MIC": 32}, {"smiles": "COc1ccc(/C=C2\\S/C(=N/c3ccc4c(C)cc(=O)oc4c3)N(CCO)C2=O)cc1", "MIC": 128}, {"smiles": "Cc1cc(=O)oc2cc(/N=C3/S/C(=C\\c4ccc(O)c(Br)c4)C(=O)N3CCO)ccc12", "MIC": 32}, {"smiles": "Cc1cc(=O)oc2cc(/N=C3/S/C(=C\\c4ccc(Cl)cc4)C(=O)N3CCO)ccc12", "MIC": 8}, {"smiles": "Cc1ccc(/C=C2\\S/C(=N/c3ccc4c(C)cc(=O)oc4c3)N(CCO)C2=O)cc1", "MIC": 32}, {"smiles": "Cc1cc(=O)oc2cc(/N=C3\\NC(=O)CS3)ccc12", "MIC": 128}]}, {"tested_on": "Acinetobacter baumannii", "assay": "Antibacterial activity against Acinetobacter baumannii assessed as inhibition of bacterial growth", "format": "functional", "units": {"MIC": "µg/mL"}, "values": [{"smiles": "Cc1cc(=O)oc2cc(/N=C3/S/C(=C\\c4ccc(F)cc4F)C(=O)N3CCO)ccc12", "MIC": 64}, {"smiles": "Cc1cc(=O)oc2cc(/N=C3/SCC(=O)N3CCO)ccc12", "MIC": 0.5}, {"smiles": "COc1ccc(/C=C2\\S/C(=N/c3ccc4c(C)cc(=O)oc4c3)N(CCO)C2=O)cc1", "MIC": 8}, {"smiles": "Cc1cc(=O)oc2cc(/N=C3/S/C(=C\\c4ccc(O)c(Br)c4)C(=O)N3CCO)ccc12", "MIC": 64}, {"smiles": "Cc1cc(=O)oc2cc(/N=C3/S/C(=C\\c4ccc(Cl)cc4)C(=O)N3CCO)ccc12", "MIC": 32}, {"smiles": "Cc1ccc(/C=C2\\S/C(=N/c3ccc4c(C)cc(=O)oc4c3)N(CCO)C2=O)cc1", "MIC": 8}, {"smiles": "Cc1cc(=O)oc2cc(/N=C3\\NC(=O)CS3)ccc12", "MIC": 256}]}]}
